# Measured values taken from article PMC10135378, “Synthesis of Novel N-Heterocyclic Carbene-Ruthenium (II) Complexes, “Precious” Tools with Antibacterial, Anticancer and Antioxidant Properties” (Antibiotics, 2023).
# How the values were obtained:
# [1] = system: MDA-MB-231 cells; test: MTT assay, anticancer activity on MDA-MB-231 cells; assay type: cell-based, human; conditions: for IC50: MTT, 72 h exposure, 0.1-100 µM; for fold more active against MDA-MB-231 than MCF-10A cells: ratio of IC50 values MCF-10A / MDA-MB-231
# Experimental: (§1) The anticancer activity of all the synthesized Ru-NHC complexes (RANHC I-VI) was studied in two human breast cancer cell lines, namely the estrogen receptor positive (ER+) MCF-7 cells and the triple negative MDA-MB-231 cells (ER-, PR-, and HER-2/Neu not overexpressed), and neuroblastoma cells, i.e., SH-SY5Y. First, the cells were exposed for 72 h at different concentrations of the studied complexes (from 0.1 to 100 µM) and then their viability was checked by MTT assay.
# (§2) The adopted cells (breast cancer MCF-7 and MDA-MB-231 and human mammary epithelial MCF-10A cells) were purchased from American Type Culture Collection (ATCC, Manassas, VA, USA) and cultured as indicated. The mouse embryonic fibroblast BALB/3T3 and neuroblastoma SH-SY5Y were also obtained from American Type Culture Collection (ATCC, Manassas, VA, USA) and cultured in DMEM high glucose supplemented with 100 U mL^−1 penicillin/streptomycin and 10% bovine calf serum (BCS) or 10% fetal bovine serum (FBS), respectively.
# (§3) MTT assay (Sigma Aldrich (St. Louis, MO, USA)) was used for the in vitro anticancer activity evaluation, as previously reported. The Ru-NHC complexes were employed at different concentrations (0.1–1–10–25–50–100 μM) for 72 h. The IC50 values were calculated from the percent (%) of control using GraphPad Prism 9 (GraphPad Software, La Jolla, CA, USA).
# [2] = system: SH-SY5Y cells; test: MTT assay, anticancer activity on SH-SY5Y neuroblastoma cells; assay type: cell-based; conditions: 72 h exposure, 0.1-100 µM
# Experimental: as §1, §2, §3
# [3] = system: MCF-10A cells; test: MTT assay, non-tumoral MCF-10A cells; assay type: cell-based, human; conditions: 72 h exposure
# Text: (§4) Additionally, we investigated the selectivity of all the synthesized Ru-NHC complexes on the cancer cells by studying their capability to interfere with the growth of two non-tumoral cells, namely the MCF-10A and BALB/3T3 cells.
# as §2, §3
# [4] = system: BALB/3T3 cells; test: MTT assay, non-tumoral BALB/3T3 fibroblasts; assay type: cell-based; conditions: 72 h exposure, non-tumoral mouse embryonic fibroblasts
# Text: as §4, §2, §3
# [5] = system: Escherichia coli (ATCC 25922); test: MIC/MBC broth dilution, E. coli; assay type: cell-based; conditions: broth dilution, 37 °C, 18 h
# Experimental: (§5) One Gram-negative (Escherichia coli (ATCC® 25922TM)) and two Gram-positive bacterial strains (Enterococcus faecalis (ATCC® 19433TM) and Staphylococcus aureus (ATCC® 23235TM)] were used for MIC and MBC values determination, according to CLSI guidelines. MIC represents the lowest concentration of compound inhibiting the visible microbial growth and expressed as μg/mL; MBC is the lowest concentration able to kill the bacteria. Both determinations were performed by the broth dilution method. Bacteria were grown overnight in LB medium (2%), then diluted to a density of […] colony forming units (CFUs) per mL, plated in sterile 96-well microplates, obtaining about 10^5 cells/ well. Increasing concentrations of the Ru-NHC complexes (1, 10, 25, 50, 70, 100 µg/mL) were used. After incubation at 37 °C for 18 h (overnight), bacterial growth was checked at a wavelength of 600 nm using a Multiskan spectrophotometer (model Multiskan Ex Microplate; Thermo Scientific, Nyon, Switzerland) and MIC or MBC values were determined, comparing cell density with a positive control (bacterial cells grown in LB medium were added with only the vehicle, DMSO). Each experiment was carried out five times, in triplicate. Ampicillin (Sigma Aldrich A9393) was used as the control for strain sensitivity.
# [6] = system: Enterococcus faecalis (ATCC 19433); test: MIC/MBC broth dilution, E. faecalis; assay type: cell-based; conditions: broth dilution, 37 °C, 18 h
# Experimental: as §5
# [7] = Conductivity measurements (hydrolytic stability); assay type: physicochemical; conditions: DMSO/H2O 90/10, solutions about 10^−3 M, room temperature
# Experimental: The proposed structures and hydrolytic stability were supported by conductivity measurements (solutions about 10^−3 M); in fact, the conductance values for the Ru compounds I, IV, V, and VI determined in DMSO/H2O 90/10 are substantially independent of the concentration, which is close to zero. […] This was attributed to the presence of a small amount of sodium iodide in the sample (about 10 mol%).
# The NMR spectra were recorded on a Bruker AM 250 spectrometer (250 MHz for ^1H; 62.5 MHz for ^13C), a Bruker AM 300 spectrometer (300 MHz for ^1H; 75 MHz for ^13C), and a Bruker AVANCE 400 spectrometer (400 MHz for ^1H; 100 MHz for ^13C; 161.97 MHz for ^31P; 376 MHz for ^19F). NMR samples were prepared by solubilizing about 15 mg of compound in 0.5 mL of deuterated solvent. The ^1H and ^13C NMR chemical shifts are referenced to SiMe4 (δ = 0 ppm) using the residual proton impurities of the deuterated solvents as internal standards. ^1H NMR spectra are referenced using the residual solvent peak δ 2.50 for DMSO-d6 and δ 7.27 for CDCl3. ^13C NMR spectra are referenced using the residual solvent peak at δ 39.51 for DMSO-d6 and δ 77.23 for CDCl3. Multiplicities are abbreviated as follows: singlet (s), doublet (d), triplet (t), multiplet (m), doublet of doublets (dd), broad (br), and overlapped (o). Elemental analysis was conducted using a PERKIN-Elmer 240-C analyzer. ESI-MS measurements were performed on a Waters Quattro Micro triple quadrupole mass spectrometer, equipped with an electrospray ion source. MALDI-MS mass spectra were achieved by a Bruker SolariX XR Fourier transform ion cyclotron resonance mass spectrometer (Bruker Daltonik GmbH, Bremen, Germany) with a 7 T refrigerated actively shielded superconducting magnet (Bruker Biospin, Wissembourg, France). MALDI ion source (Bruker Daltonik GmbH, Bremen, Germany) was used in the samples in positive ion mode. The mass range was set to m/z 200–3000. The laser power was 28% and 22 laser shots were utilized for each scan. The mass spectra were calibrated externally using a mix of peptide clusters in MALDI ionization positive ion mode. A linear calibration was applied. The molar conductance of the ruthenium complexes was measured at room temperature by a Metrohm 712 Conductometer using freshly prepared 10^−3 M solutions in DMSO/H2O 90/10 solvent.
Compound,IC50 [1] [µM],IC50 [2] [µM],IC50 [3] [µM],IC50 [4] [µM],M.I.C. E. coli [5] [µg/mL],M.I.C. E. faecalis [6] [µg/mL],conductivity [7],fold more active against MDA-MB-231 than MCF-10A cells [1]
COC(Cn1ccn(C)[c]1=[Ru]([Cl])[Cl])c1ccccc1.Cc1ccc(C(C)C)cc1 (centres unmarked) [RANHC-I],> 100,90 ± 1.2,> 100,> 100,50,50,close to zero,–
COC(Cn1[c](=[Ru]([Cl])[Cl])n(C)c2ccccc21)c1ccccc1.Cc1ccc(C(C)C)cc1 (centres unmarked) [RANHC-VI],40.6 ± 1.1,66.9 ± 0.8,90.7 ± 1.2,39.1 ± 1.1,25,50,close to zero,2.2 fold
COC(Cn1c(Cl)c(Cl)n(C)[c]1=[Ru]([Cl])[Cl])c1ccccc1.Cc1ccc(C(C)C)cc1 (centres unmarked) [RANHC-V],24.1 ± 0.7,48.4 ± 0.8,79.5 ± 1.2,> 100,50,70,close to zero,about 3.3 fold
COC(Cn1ccn(C)[c]1=[Ru]1[O]C(=O)C(=O)[O]1)c1ccccc1.Cc1ccc(C(C)C)cc1 (centres unmarked) [RANHC-IV],> 100,88.9 ± 0.9,> 100,> 100,50,50,close to zero,–
CN1C=CN2CC(c3ccccc3)[O+](C)[Ru]([Cl])=[C]12.Cc1ccc(C(C)C)cc1.F[P-](F)(F)(F)(F)F (centres unmarked) [RANHC-III],> 100,> 100,> 100,> 100,25,50,6.3–25.6 μS cm^−1,–
COC(Cn1ccn(C)[c]1=[Ru]([I])[I])c1ccccc1.Cc1ccc(C(C)C)cc1 (centres unmarked) [RANHC-II],> 100,> 100,> 100,> 100,50,50,13.1–44.2 μS cm^−1,–
